Data on six molecules can be found in patent publication US5556777A, “Immunosuppressive pharmaceutical compositions new biological activity from a marine agrobacterium sp” (PharmaMar, s.a., priority 1993, dated 1996).

One data set deals with leukemia. The conditions noted are these: isolated from Sesbania drummondi; cited from earlier work.
Data set [1] is described as follows: Toxicology (MTD, LD50) in CD-1 or CB6F1 mice. As to conditions: mouse, in vivo, CD-1 or CB6F1 mice. The class given is in vivo, mouse. Here is the method: (§1) The MTD establishes the parameters to establish in vivo dosages initiated for studying the Graft-v-Host reaction and skin grafting. The Swiss conventional mouse (Charles River CD-1) is used in a weight range from 18-30 g.
(§2) Animals are injected with a single dose at four dose levels: e.g., 400 mg/kg, 100 mg/kg, 40 mg/kg, and 10 mg/kg in 0.5 ml of sterile vehicle (2 animals per dose, MTD). A saline solution containing 5% non-denatured EtOH and a drop of Tween-80 detergent is used a vehicle for dilution. Stirring and sonication are utilized to effect solution or suspension of the composition. The composition is injected within one hour of preparation. Animals are observed for five days (MTD) after injection for toxic symptoms and/or death. Group weights are taken D0 and D5. Surviving animals are sacrificed on D5 (MTD). A `Daily Logsheet` used in the toxicity studies is appended.

For a further data set, the system named is CD-1 or CB6F1 mice. Description: Toxicology (MTD, LD50) in CD-1 or CB6F1 mice. Type of data set: in vivo, mouse. The method, then:
as §1, §2

Data set [2] concerns murine lymphocytes (Balb/c and C57BI/6, cocultured). Put plainly: In vitro murine mixed lymphocyte reaction (MLR). The class given is cell-based. The conditions noted are these: for MLR IC50: murine MLR, 96 h incubation, 15 h 3H-Thy pulse; for Index Cytotox./Activity: ratio LcV IC50 / MLR IC50. The method, then:
The MLR is an in vitro test of cellular immunity in which murine lymphocytes from genetically dissimilar animals are cocultured to mutually induce cell proliferation (i.e., two-way MLR method). Mixed cell suspensions, together with the test compound, are incubated for 96 hours and subsequently pulsed for 15 hours with tritiated-thymidine (3H-Thy), a radioisotopically labelled nucleic acid. Tritiated-thymidine is incorporated into the DNA of proliferating cells. Data from the MLR is generated as dpm of radioactivity which is then expressed as a percentage of cellular activity, relative to control, using the following reduced formula: [formula]
A 50% inhibitory concentration (IC50) value was interpolated for sesbanimide containing fractions tested. A ratio between cytotoxicity, as determined from the LcV described below, and activity in the MLR is also presented. A high ratio distinguishes noncytotoxic immunosuppression from general cytotoxicity.
Reconstituted extract (10 μl) is added in two sets of duplicates into wells of a 96-well microtiter plate and evaporated to dryness at room temperature. […] To the other set of sample duplicates is added complete media without cells so as to provide for background color control data. All plated are incubated in a 5% CO2 incubator for 96 hours and pulsed for 15 hours with 100 μl containing 1 μCi/well tritiated-thymidine (^3 H-Thy). The plates are harvested onto glass fiber filter discs using an INOTECH harvester. The filter discs are counted directly using an INOTECH dry scintillation counter. The activity of the discs are calculated as a relative proliferative percent of a mean control value as described above.

Data set [3] in a line: Lymphocyte viability / cytotoxicity assay (LcV), MTT. The class given is cell-based, murine. As to conditions: mouse, lymphocytes; LcV; read-out: cytotoxicity IC50. Here is the method: (§3) The LCV is a in vitro cytotoxicity assay for murine lymphocytes designed by the investigator. The LCV is similar to the MLR with the exception that only one cell population (Balb/c) is incubated with the test compound to assess cytotoxicity as distinct from the antiproliferative effects of a test compound. That is, unlike the unambiguous determination of immunostimulation from MLR data, a judgement of immunosuppression can not be immediately interpreted. Cytotoxicity (e.g., due to direct cell lysis) from a compound can occur which would alter viability determinations inherent in the generation of MLR data. […] The percent viable cells is determined by the MTT-thiazolyl blue method after a similar incubation to the MLR of lymphocytes with the test sample. MTT is a substrate converted by mitochondrial enzymes in living cells to a purple, water-insoluble, formazan crystal. If there is no significant reduction in cell viability, as determined by this detection method, then damaged cells are probably not present for low data values generated in the MLR. Colorimetric data from the LCV is calculated as a percentage of viability, relative to control, using the following formula: [formula]
(§4) A 50% viability, or 50% cytotoxicity, (IC50) value was interpolated for sesbanimide containing fractions tested.
(§5) Lymphocytes are prepared as described above for the MLR with the exception that cells from only one murine strain are prepared (BLAB/c). Reconstituted extract (10 μl) is added in two sets of duplicates into wells of a 96-well microtiter plate and evaporated to dryness at room temperature. Lymphocytes (2.5×10^6 cells/ml) are added to one set of duplicates and to wells containing no sample. Media containing no cells are added to the other set of duplicates to provide background color control data. Plated are incubated in a 5% CO2 incubator for 4 hours and pulsed with MTT-thiazolyl blue for 6-8 hours.

In data set [4] the test system is murine lymphocytes (Balb/c). The data set is described as above. Type of data set: cell-based. The conditions noted are these: murine lymphocytes, MTT viability (50% cytotoxicity). Here is the method: as §3, §4, §5
The next data set relates to Graft-v-Host Reaction. Description: In vivo Graft-v-Host reaction (GVHR), spleen index. Details: species or system mouse. Here is the method:
Any sample that prevents splenomegaly (<graft index) is considered as an immunosuppressive active.
A standard of cyclophosphamide (200 mg/kg) is used. Experimental animals are sacrificed on D8 and spleens removed. […] Moribund animals are sacrificed immediately.

Data set [5] concerns primary mixed lymphocyte cultures (MLRs) and alloreactive T cells. The conditions noted are these: compared with cyclosporin A; cited from earlier work.
The subject of data set [6] is Agrobacterium sp. strain PH-103. Put plainly: Antibiotic sensitivity of strain PH-103 (sensitivity discs). The class given is cell-based. The conditions noted are these: 27° C. Here is the method:
18. Antibiotic sensitivity--ATCC number 231 basal medium. Difco sensitivity discs
The culture was incubated at 27° C. and records of the results were made after suitable incubation times. All media were prepared with 2.7% Instant Ocean Salts and pH was approximately neutral (7-7.4). The description of the culture and test results are as follows: […]

≈ marks a conversion by molar mass, not a printed value.

On to `C=C1COC(O)(C2OCOC(C3CC(=O)NC(=O)C3)C2O)C1C` (single isomer, unassigned) [Sesbanimide], for which, in the data set on leukemia, the “antineoplastic activity (in words)” value is given as “antineoplastic activity, particularly against leukemia”. The survival at 120 h in data set [1] (at maximum tolerated dose, read-out: Alive Day 5) stood at 100%. Further, the MTD at 120 h in [1] (read-out: Maximum Tolerated) is 0.56 mg/kg. Also, in the data set on CD-1 or CB6F1 mice (CD-1 or CB6F1 mice), the LD50 was determined as 0.805 mg/kg. In addition, the “toxicity at 56, 10.5 and 5.6 mg/kg” value in the data set with CD-1 or CB6F1 mice (pure compound, in vivo, 56, 10.5 and 5.6 mg/kg) is reported as “toxic”. Besides, the “toxicity at total doses equal to or lower than 0.56 mg/kg” value in the data set on CD-1 or CB6F1 mice (pure compound, in vivo, total dose ≤0.56 mg/kg) is given as “no toxicity”. Also, in data set [2] (Table 4 data: trace amounts of an extract, major constituent, or pure compound), the “immunosuppressive activity (in words)” value is “potent immunosuppressive activity”. For the same molecule, the “MLR IC50” value was below 0.0075 µg/mL in data set [2] (listed as ET 103/64-6:8) and 0.00015 µg/mL in data set [2] (listed as ET 103/89-4). Besides, the “Index Cytotox./Activity” value is > 1,746 in data set [2] (listed as ET 103/64-6:8) and 2,777 in data set [2] (listed as ET 103/89-4). In addition, the CC50 at 4 h in data set [3] fell in the range of 0.417 to 3.6 µg/mL (≈ 1.27 to 11 µM). The “LcV IC50” value came to 13.100 µg/mL in data set [4] (listed as ET 103/64-6:8) and 0.417 µg/mL in [4] (listed as ET 103/89-4). Moreover, the “immunosuppressive activity in GVHR (in words)” value with Graft-v-Host Reaction (Table 6 data) is listed as “potent immunosuppressive activity”. The “Alive Day 8” value in the data set on Graft-v-Host Reaction (optimal dose 0.2 mg/kg, i.p. per diem 7 days) is reported as 40%. Besides, the “GVHR Index” value with Graft-v-Host Reaction (optimal dose 0.2 mg/kg, i.p. per diem 7 days, positive 1.34) amounted to 0.92.
For `O=P1(N(CCCl)CCCl)NCCCO1` (stereo not shown) [Cyclophosphamide, cyclophosphamide], the “Alive Day 8” value amounted to 100% with Graft-v-Host Reaction (200.0 mg/kg, test 124-93) and 60% in the data set with Graft-v-Host Reaction (200.0 mg/kg, test 811-93). The “GVHR Index” value in the data set on Graft-v-Host Reaction (200.0 mg/kg, test 124-93, positive 1.32) was determined as 0.23; in the data set on Graft-v-Host Reaction (200.0 mg/kg, test 811-93, positive 1.34), 0.28.
As for `C=CC[C@@H]1/C=C(\C)C[C@H](C)C[C@H](OC)[C@H]2O[C@@](O)(C(=O)C(=O)N3CCCC[C@H]3C(=O)O[C@H](/C(C)=C/[C@@H]3CC[C@@H](O)[C@H](OC)C3)[C@H](C)[C@@H](O)CC1=O)[C@H](C)C[C@@H]2OC` [FK 506], in data set [5], the “potency relative to cyclosporin A (in words)” value is “more potent than cyclosporin A”.
For `CCn1cc(C(=O)O)c(=O)c2ccc(C)nc21` [nalidixic acid], the “Antibiotic sensitivity of strain PH-103” value in data set [6] was “Sensitive”.
Still for that read-out and setting: the value for `CN[C@H](CC(C)C)C(=O)N[C@H]1C(=O)N[C@@H](CC(N)=O)C(=O)N[C@H]2C(=O)N[C@H]3C(=O)N[C@H](C(=O)N[C@H](C(=O)O)c4cc(O)cc(O)c4-c4cc3ccc4O)[C@H](O)c3ccc(c(Cl)c3)Oc3cc2cc(c3O[C@@H]2O[C@H](CO)[C@@H](O)[C@H](O)[C@H]2O[C@H]2C[C@](C)(N)[C@H](O)[C@H](C)O2)Oc2ccc(cc2Cl)[C@H]1O` [vancomycin] was “resistant”; that for polymyxin was “resistant”.

The term LD50 denotes the dose at which mortality reaches 50%.
